In patent US12448371B2, “Inhibitor compounds” (Cincera Therapeutics Pty Ltd, priority 2019, dated 2025):
pIC50: −log10 of the molar value.

Tests used:
Assay type in all cases: cell-based
[1] = tested on: TGF-β1-mediated αSMA expression; assay: Fibroblast-to-Myofibroblast Transition (FMT) in human lung cells derived from IPF patient donors; details: primary human bronchial fibroblasts from IPF donors; 8 concentrations up to 10 μM; FIG. 2
Description: Fibroblast-to-Myofibroblast Transition (FMT) in Human Lung Cells Derived from Idiopathic Pulmonary Fibrosis (IPF) Patient Donors
Lung-derived primary human bronchial fibroblasts (from IPF donors) were seeded at 3,000 cells per well in 96-well plates, and were grown over 5 days prior to treatment with the desired compounds (cell medium was refreshed at 48 h). Cells were then treated with 8 different concentrations of Compound 8 or 46, in semi-log dilutions starting from the top dosage of 10 μM (vehicle control: 0.1% DMSO; positive control: SB525334 and nintendanib). 1-hour post compound addition, the cells were stimulated with the addition of 1.25 ng/mL TGF-β1, and incubated for 72 hours. Cells were then fixed with 4% formaldehyde, then stained using […] and imaged via high-content analysis. The assay was conducted in biological duplicates. This in vitro FMT assay results were provided by Charles River Laboratories through a service agreement.

Des1 (h) = target: T1, Des1 (h) (Homo sapiens, UniProt O15121); assay: Measurement of Dihydroceramide Desaturase-1 (Des-1) activity in intact Jurkat cells labeled with DhCer-C6-NBD (HPLC); details: intact Jurkat cells; given as concentration range, or <X / >X if measured at one concentration X only; read-out: Des1 (h) Jurkat IC50
T1 construct: endogenous in cells; host or cells: parental Jurkat cells
T1 sequence (O15121 1-323): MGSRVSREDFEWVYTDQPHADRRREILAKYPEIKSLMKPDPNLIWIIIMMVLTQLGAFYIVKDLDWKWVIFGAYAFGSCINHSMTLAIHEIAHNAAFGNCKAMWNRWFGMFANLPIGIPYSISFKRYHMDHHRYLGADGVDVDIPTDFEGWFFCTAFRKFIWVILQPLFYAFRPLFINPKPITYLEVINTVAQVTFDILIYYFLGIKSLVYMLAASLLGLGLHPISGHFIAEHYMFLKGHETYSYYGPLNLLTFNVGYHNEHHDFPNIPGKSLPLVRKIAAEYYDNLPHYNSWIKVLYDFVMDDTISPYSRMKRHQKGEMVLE
How it was run: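 Intact parental Jurkat cells in 0.5% serum medium were labelled with DhCer-C6-NBD; cells harvested at 500×g and ceramides extracted. NBD-labelled substrate and product resolved by C18 reverse-phase HPLC and quantified by fluorescence (ex 465/em 530 nm) as a measure of Des-1 activity.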

[2] = tested on: Connective Tissue Growth Factor (CTGF) gene expression; assay: Real time quantitative PCR in TGFβ-stimulated human hepatic stellate cells (LX2) to detect CTGF gene expression; details: LX-2, 5 μM, CTGF mRNA in TGFβ-stimulated LX2 cells vs vehicle control
Description: Real Time Quantitative Polymerase Chain Reaction in Human Hepatic Stellate Cells (LX2) to Detect Connective Tissue Growth Factor (CTGF) Gene Expression The hepatic stellate cell line, LX2 was maintained in DMEM (LifeTechnologies) with 2% heat-inactivated FBS, 100U penicillin (LifeTechnologies), 0.1 mg/mL streptomycin (LifeTechnologies), and 2 mM L-glutamine (LifeTechnologies) at 37° C. with 5% CO2. Cells were seeded into 6-well plates (200,000 cells per well, 2 mLs media) and grown overnight. The cells were changed to 2 mLs 0.5% FBS media for 24 hours prior to treatment. Treatments were added in 2 mLs fresh 0.5% FBS media (vehicle control, long/mL TGFβ alone (R&D Systems), 10 ng/mL TGFβ+inhibitors) and incubated for 24 hours. […] RNA was extracted using Qiagen RNeasy kit (cat #74104), according to manufacturer's instructions. RNA (1 μg) was used to generate cDNA using the Qiagen Quantitect Reverse Transcription Kit (cat #205311), and stored at -20° C. cDNA was diluted (1:25 final) and combined with Sybr Green (Qiagen cat #204143), forward and reverse primers (50 ng each) and run on Real Time PCR Thermocycler machine (RG-6000, Corbett) with the following PCR conditions: Hold 1: 50° C. for 2 min; Hold 2: 95° C. for 15 min; Cycling: 45 cycles of: 95° C. for 30 sec, 58° C. for 21 sec, 72° C. for 15 sec, Hold 3: 72° C. for 30 sec, Melt: 72° C. to 99° C. GAPDH primers (Forward: [NT]; Reverse: [NT] primers (Forward: [NT]; Reverse: [NT] primers available from Origene, cat #HP205671)].

pIC50 (Des1 (h))	Structure (SMILES)	inhibition of TGF-β1-mediated αSMA expression in IPF donors [1]	inhibition at 5 µM [2] [%]
6.00 to 7.00	N=C(NO)c1ccc(Nc2ncc(-c3ccc(C(F)(F)F)cc3)o2)cn1 [Example 8, 5-((5-[4-(Trifluoromethyl)phenyl]-1,3-oxazol-2-yl)amino)-N-hydroxy-pyridine-2-carboximidamide]	concentration-dependent inhibition	> 90
6.00 to 7.00	N=C(NO)c1ccc(Nc2ncc(-c3ccc(C(F)(F)F)cn3)o2)cn1 [Example 46, N′-hydroxy-5-((5-(5-(trifluoromethyl)pyridin-2-yl)oxazol-2-yl)amino)-picolinimidamide]	concentration-dependent inhibition	> 90
